The target in one series is VEGFR2 (Homo sapiens, UniProt P35968). Briefly: VEGFR2 inhibition experiment (HTRF KinEASE-TK kit). In kind it is biochemical. The settings on record: read-out: IC50 for inhibiting VEGFR2. The procedure, abridged: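 HTRF KinEASE-TK format: enzyme and compound were preincubated 30 min at room temperature, then substrate and ATP added for 40 min, followed by cryptate antibody/streptavidin-XL665 detection for 45 min. Inhibition was normalised to DMSO and no-enzyme controls; IC50 from a four-parameter fit.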
Sequence of VEGFR2 (P35968 20-1356, species assumed): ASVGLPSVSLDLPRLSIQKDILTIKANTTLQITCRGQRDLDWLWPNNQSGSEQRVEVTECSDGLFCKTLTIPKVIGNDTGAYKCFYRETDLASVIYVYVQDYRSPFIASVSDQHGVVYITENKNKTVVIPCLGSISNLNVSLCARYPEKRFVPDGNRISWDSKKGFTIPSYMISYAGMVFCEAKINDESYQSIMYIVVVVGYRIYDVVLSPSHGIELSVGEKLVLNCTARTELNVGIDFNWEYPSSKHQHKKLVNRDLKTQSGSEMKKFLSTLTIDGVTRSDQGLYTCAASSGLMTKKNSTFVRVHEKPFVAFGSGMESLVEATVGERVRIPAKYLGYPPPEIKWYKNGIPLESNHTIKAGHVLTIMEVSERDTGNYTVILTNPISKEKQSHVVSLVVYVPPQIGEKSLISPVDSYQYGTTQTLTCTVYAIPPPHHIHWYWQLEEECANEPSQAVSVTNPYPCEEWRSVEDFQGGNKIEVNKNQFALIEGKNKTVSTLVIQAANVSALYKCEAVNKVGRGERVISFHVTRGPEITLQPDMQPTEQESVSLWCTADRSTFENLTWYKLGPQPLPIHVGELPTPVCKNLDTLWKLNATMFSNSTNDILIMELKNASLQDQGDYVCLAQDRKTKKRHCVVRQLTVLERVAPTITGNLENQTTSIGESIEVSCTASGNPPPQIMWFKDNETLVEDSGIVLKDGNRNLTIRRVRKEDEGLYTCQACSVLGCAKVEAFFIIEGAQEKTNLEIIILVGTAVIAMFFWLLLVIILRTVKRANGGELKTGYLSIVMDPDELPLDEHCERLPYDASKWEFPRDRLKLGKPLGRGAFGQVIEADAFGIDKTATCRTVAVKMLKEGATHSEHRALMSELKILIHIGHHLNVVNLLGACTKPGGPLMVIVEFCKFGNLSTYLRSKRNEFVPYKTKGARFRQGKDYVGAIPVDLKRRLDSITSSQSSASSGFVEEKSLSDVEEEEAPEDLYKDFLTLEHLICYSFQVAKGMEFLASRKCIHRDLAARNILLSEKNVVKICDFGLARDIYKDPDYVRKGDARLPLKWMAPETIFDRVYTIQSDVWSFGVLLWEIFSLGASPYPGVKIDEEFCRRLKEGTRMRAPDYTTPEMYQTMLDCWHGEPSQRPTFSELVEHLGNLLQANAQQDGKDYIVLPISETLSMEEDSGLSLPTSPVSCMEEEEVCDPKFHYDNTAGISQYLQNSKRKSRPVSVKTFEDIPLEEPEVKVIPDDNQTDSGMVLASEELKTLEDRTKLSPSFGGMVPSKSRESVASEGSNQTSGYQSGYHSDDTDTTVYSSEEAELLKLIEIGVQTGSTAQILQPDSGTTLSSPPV

Series [1] can be described thus: Pharmacokinetics and tissue distribution of compounds in rats. In kind it is in vivo. As to conditions: male, SD, rat, PO 5 mg/kg; for AUC(0-t): read-out: AUC AUClast; for Cmax: read-out: Peak concentration Cmax; for Kp: read-out: T/P Ratio of AUClast in tissue to plasma; for Tmax: read-out: Time to peak concentration Tmax. How it is done:
By intragastric administration (PO) of BLU-667 (prepared according to Example 5 of WO2017/079140A1) and Compound 17 to male SD rats respectively, the plasma concentrations and the tissue concentrations of BLU-667 and Compound 17 in brains, lungs and thyroid of rats were determined to investigate the pharmacokinetic characteristics. The dosage of administration by PO was 5 mg/kg, and the solvent was 0.5% MC (methylcellulose). With administration by PO, blood samples were collected at different time points (0 h before administration, and 0.25 h, 0.5 h, 1 h, 2 h, 4 h, 6 h, 8 h, and 24 h after administration). The blood samples were anticoagulated with dipotassium edetate, and centrifuged to provide plasma samples, which were stored at −80° C. Rats were sacrificed by exsanguination from abdominal aorta at 0.5 h, 2 h, 8 h, and 24 h after PO administration. Brain, lung and thyroid were collected, washed, and homogenized with normal saline at a certain ratio, to provide tissue samples which were stored at −80° C. The plasma samples and tissue samples were processed with precipitated protein and then analyzed by LC-MS/MS. The pharmacokinetic parameters were computed using WinNonlin 6.3 software and using a non-compartmental model.

Where two headings read alike, the source gives them in different places.

For the molecule `Cc1cc(Nc2cc(C)[nH]n2)nc(-c2ccc(N3CC4CC(C3)N4Cc3ccc(-n4cc(F)cn4)nc3)nc2)n1` [Compound 17, 2-(6-(6-((6-(4-fluoro-1H-pyrazol-1-yl)pyridin-3-yl)methyl)-3,6-diazabicyclo[3.1.1]heptan-3-yl)pyridin-3-yl)-6-methyl-N-(5-methyl-1H-pyrazol-3-yl)pyrimidin-4-amine], the IC50 at VEGFR2 was found to be 63 ± 11.8 nM. For the same molecule, the AUC(0-t) in series [1] (brain) turned out to be 1010 ng·h/mL; in series [1] (lung) it was 79600 ng·h/mL; in series [1] (plasma), 6790 ng·h/mL; in series [1] (thyroid) it was 11400 ng·h/mL. Besides, the Cmax in series [1] (brain) was determined as 153 ng/mL; in series [1] (lung), 9620 ng/mL; in series [1] (plasma) it was 772 ng/mL; in series [1] (thyroid), 1870 ng/mL. The Kp in series [1] (brain) was 0.15; in series [1] (lung), 11.7; in series [1] (plasma) it was 1; in series [1] (thyroid) it was 1.68. In addition, the Tmax in series [1] (brain) was 2 h; in series [1] (lung) it was 2 h; in series [1] (plasma), 2 h; in series [1] (thyroid) it was 8.49 h.

Values taken from patent US20220144847A1, “HETEROCYCLIC COMPOUND, PHARMACEUTICAL COMPOSITION COMPRISING SAME, PREPARATION METHOD THEREFOR, AND USE THEREOF” (Sichuan Kelun-Biotech Biopharmaceutical Co., Ltd., priority 2019, published 2022).
